The values that follow come from patent publication US12139520B2 (priority 2020, dated 2024).

In data set [1] the target is T1, hAMY3 receptor (Homo sapiens, UniProt O60896+P30988).
T1 sequence (P30988 25-474): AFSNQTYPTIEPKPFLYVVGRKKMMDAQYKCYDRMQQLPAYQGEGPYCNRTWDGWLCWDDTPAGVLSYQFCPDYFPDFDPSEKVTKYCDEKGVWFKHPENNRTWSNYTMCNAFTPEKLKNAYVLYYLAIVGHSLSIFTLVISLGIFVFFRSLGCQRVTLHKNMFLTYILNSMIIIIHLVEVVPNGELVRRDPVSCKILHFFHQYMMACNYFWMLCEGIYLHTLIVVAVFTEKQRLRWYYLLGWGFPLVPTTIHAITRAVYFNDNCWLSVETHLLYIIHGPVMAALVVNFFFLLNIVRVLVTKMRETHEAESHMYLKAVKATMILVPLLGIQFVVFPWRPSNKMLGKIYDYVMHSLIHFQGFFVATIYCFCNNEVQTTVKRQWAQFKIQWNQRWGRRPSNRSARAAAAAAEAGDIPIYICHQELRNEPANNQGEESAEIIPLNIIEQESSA
T1 sequence (O60896 24-148 partner): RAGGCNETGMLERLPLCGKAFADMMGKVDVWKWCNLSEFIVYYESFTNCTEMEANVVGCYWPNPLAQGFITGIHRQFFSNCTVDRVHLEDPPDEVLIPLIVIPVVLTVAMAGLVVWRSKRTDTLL
Put plainly: cAMP assay for in vitro receptor activation, hAMY3-R. It counts as cell-based. The procedure, abridged:
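Monoclonal cell line stably overexpressing human AMY3 receptor, 2000 cells/well in DPBS with 0.05% casein and 0.5 mM IBMX. Stimulated 30 min at room temperature with graded compound doses, human amylin as positive control. cAMP accumulation read by TR-FRET after one hour.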
(Cyclic AMP is a second messenger, typically raised through Gs and lowered through Gi signalling.)

A short description of data set [2]: Physical stability of peptide analogues (Thioflavin T fibrillation). The class given is physicochemical. The note with it: maximum ThT signal normalized between hAMY maximum and buffer background; 40° C., shaking, four days; pH 7 per table title. The procedure, abridged:
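1 h in 50 mM NaOAc pH 4 / 50 mM NaPi pH 7; + ThT 4 μM final; 40 °C, 700 rpm linear shake 5 min pre-read; ex 450, em 480 nm q10 min × 4 d; LOESS smoothing; max signal normalised to hAMY max vs buffer blank.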

Data set [3] is described as follows: Acute food intake study in lean rats. It counts as in vivo, rat. The note with it: single SC injection, lean healthy rats; for Average cumulative food intake: up to 48 h, P < 0.001 vs vehicle. The procedure: General Protocols for Acute Food Intake Study
The effect on cumulative food intake was measured in male Sprague Dawley rats (6 weeks of age, Taconic, Denmark) following a single dose using a fully automated food intake monitoring system (HM-2; MBRose ApS, Faaborg, Denmark), allowing for advanced synchronous real-time monitoring of food intake behaviour of individual animals. The animals were housed in groups of 4 in a light-, temperature-, and humidity-controlled room (a 12/12 LD cycle, lights on at 02:00 AM; 22±2° C.; 50% relative humidity). The mice had ad libitum access to regular chow diet (Altromin 1324, Brogaarden A/S, Lynge, Denmark) and domestic quality tap water. Mice arrived at day 7, and a minimum of 5 days of habituation to the system was allowed prior to beginning of the study. During these days, the animals were handled daily to accustom them to the experimental paradigm. On the day of dosing, the animals were randomized into groups according to body weight. Animals were fasted for four hours prior to dosing. Animals were dosed SC 30 or 180 min prior to lights out, and food intake data were collected automatically for a total of 48 h post-dosing with automatic food recordings every 5 min.

Data set [4] can be described thus: Chronic diet-induced obesity (DIO) study in rats. It counts as in vivo, rat. Conditions: for Average body weight day 28 (gram): P < 0.001 vs vehicle. An excerpt: General Protocols for Chronic Diet-Induced Obesity (DIO) Study
Sprague-Dawley rats (Taconic, Denmark) arrived at the age of 5 weeks. After one week of acclimation, they were evenly grouped based on their baseline body weight and offered ad libitum access a two-choice diet consisting of chow pellet (Altromin #1324, Brogaarden, Lynge, Denmark) and a high palatable high sugar/fat diet (1:1:1 mixture of Nutella (Ferrero, Alba, Italy), peanut butter (PCD, Rotterdam, Netherlands) and powdered standard chow (Altromin #1324, Brogaarden, Lynge, Denmark); 29.3% fat, 33.2% carbohydrate, and 18% protein) for up to 36 weeks. The rats were pair-housed throughout the study under controlled environmental conditions (12-hour light/dark cycle, lights off at 15:00; 22±1° C.; 50±10% relative humidity). Body weight, food and water intake were monitored daily during the entire period of the study. One day before the experiment, the rats were randomized according to body weight into experimental groups (n=9-10), which received compound or vehicle SC. QD (once daily) for 28 days.

Data set [5] has as its target hAM1 receptor (Homo sapiens, UniProt O60895+Q16602). In words: cAMP assay for in vitro receptor activation, hAM1-R. It counts as cell-based. In outline: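 Read-out is intracellular cAMP as a measure of receptor activation. Cells stably overexpressing hAM1 were subcloned to a monoclonal line, then thawed and seeded at 8000 cells/well in DPBS with 0.05% casein and the phosphodiesterase inhibitor IBMX at 0.5 mM.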

[6] abbreviates: 1 nmol/kg SC once daily for 28 days.
The mark [7] stands for this setting: 3 nmol/kg SC once daily for 28 days.
[8] abbreviates: 10 nmol/kg SC once daily for 28 days.

Read-outs that look alike come from different tables or passages of the source. Numbered stars: 1 amine (or outer) side, 2 acyl side, 3 side chain; on linkers, the order of the positions; unused ones are H or OH. Bridge positions count the residues as written; N and C are the ends. Square brackets hold non-standard residues; d marks the D form. Peptide text beside a SMILES is read from it. * marks the point of attachment. C20 diacid = O=C(O)CCCCCCCCCCCCCCCCCCC(=O)*; γGlu = O=C(O)[C@H](CCC(=O)[*:2])N[*:1]; Hyp = O=C(O)[C@@H]1C[C@@H](O)CN1 Where only a bound is given, the exact number is not on record here.

hAM1 receptor, sequence (Q16602 23-461): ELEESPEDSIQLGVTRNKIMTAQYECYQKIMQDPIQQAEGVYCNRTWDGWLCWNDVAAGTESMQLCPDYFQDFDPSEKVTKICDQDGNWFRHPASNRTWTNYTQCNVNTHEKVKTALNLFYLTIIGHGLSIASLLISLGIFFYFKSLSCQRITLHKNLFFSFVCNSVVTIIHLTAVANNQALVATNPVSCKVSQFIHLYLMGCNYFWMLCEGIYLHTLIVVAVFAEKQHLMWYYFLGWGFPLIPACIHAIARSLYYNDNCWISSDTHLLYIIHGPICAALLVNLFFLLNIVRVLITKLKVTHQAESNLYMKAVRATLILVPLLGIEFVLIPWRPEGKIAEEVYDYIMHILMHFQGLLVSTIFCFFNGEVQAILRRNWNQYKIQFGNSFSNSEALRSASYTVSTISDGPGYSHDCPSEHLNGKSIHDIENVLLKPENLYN
hAM1 receptor, sequence (O60895 43-175 partner): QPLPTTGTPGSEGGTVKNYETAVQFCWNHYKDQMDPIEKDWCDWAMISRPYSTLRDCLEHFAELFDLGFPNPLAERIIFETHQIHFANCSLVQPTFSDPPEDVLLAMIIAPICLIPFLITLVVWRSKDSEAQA

As a reminder, the EC50 is the concentration giving half of the maximal effect. Turning to `CC[C@H](C)[C@H](NC(=O)[C@H](CC(N)=O)NC(=O)[C@@H](NC(=O)[C@H](CCCNC(=N)N)NC(=O)[C@@H]1CCCN1C(=O)[C@H](C)NC(=O)[C@@H](NC(=O)[C@H](CC(N)=O)NC(=O)[C@H](CC(=O)O)NC(=O)[C@H](CCCCN)NC(=O)[C@H](CC(=O)O)NC(=O)[C@H](CCCCN)NC(=O)[C@H](CC(=O)O)NC(=O)[C@@H](NC(=O)[C@H](Cc1ccccc1)NC(=O)[C@H](CCC(N)=O)NC(=O)[C@H](Cc1ccc(O)cc1)NC(=O)[C@@H](NC(=O)[C@H](CCC(N)=O)NC(=O)[C@H](Cc1c[nH]cn1)NC(=O)[C@H](C)NC(=O)[C@H](CC(C)C)NC(=O)[C@H](CCCNC(=N)N)NC(=O)[C@H](CCC(N)=O)NC(=O)[C@@H](NC(=O)[C@@H](NC(=O)[C@@H]1CSSC[C@H](NC(=O)CN)C(=O)N[C@@H](CCCNC(=N)N)C(=O)N[C@@H](Cc2ccccc2)C(=O)NCC(=O)N[C@@H]([C@@H](C)O)C(=O)N1)[C@@H](C)O)C(C)C)[C@@H](C)CC)[C@@H](C)O)C(C)C)[C@@H](C)O)C(=O)NCC(=O)N1CCC[C@H]1C(=O)N[C@@H](CCC(N)=O)C(=O)NCC(=O)N1C[C@H](O)C[C@H]1C(N)=O` [compound 46] (H-GCRFGTCTVQRLAHQIYQFTDKDKDNVAPRTNIGPQG[Hyp]-NH2; disulfide 2-7; N-terminus assumed), the EC50 in data set [1] (cAMP assay, hAMY3 receptor, read-out: hAMY3R EC50) was found to be 0.011 nM. Besides, the “Max ThT signal (%)” value in data set [2] was found to be 5.800%. Also, the “cumulative food intake, % to vehicle” value stood at 52.48% in data set [3] (10 nmol/kg) and 24.10% in data set [3] (30 nmol/kg). Moreover, the “Average cumulative food intake” value came out at 23.3 g in data set [3] (10 nmol/kg) and 10.7 g in data set [3] (30 nmol/kg). The “body weight day 28, % to vehicle” value in data set [4] (setting [6]) amounted to 94.13%; in data set [4] (setting [7]), 86.59%; in data set [4] (setting [8]), 86.31%. Besides, the “Average body weight day 28 (gram)” value in data set [4] (setting [6]) was found to be 674 gram; in data set [4] (setting [7]) it was 620 gram; in data set [4] (setting [8]) it was 618 gram.

Take `CC[C@H](C)[C@H](NC(=O)[C@H](CCC(N)=O)NC(=O)[C@H](CCC(=O)O)NC(=O)[C@H](C)NC(=O)[C@H](CC(C)C)NC(=O)[C@H](CCCNC(=N)N)NC(=O)[C@H](CCC(N)=O)NC(=O)[C@@H](NC(=O)[C@@H](NC(=O)[C@@H]1CSSC[C@H](NC(=O)[C@H](CCCCN)NC(=O)CC[C@H](NC(=O)CCCCCCCCCCCCCCCCCCC(=O)O)C(=O)O)C(=O)N[C@@H](CC(N)=O)C(=O)N[C@@H]([C@@H](C)O)C(=O)N[C@@H](C)C(=O)N[C@@H]([C@@H](C)O)C(=O)N1)[C@@H](C)O)C(C)C)C(=O)N[C@@H](C)C(=O)N[C@@H](CCC(N)=O)C(=O)N[C@@H](Cc1ccccc1)C(=O)N[C@H](C(=O)N[C@@H](CC(=O)O)C(=O)N[C@@H](CCCCN)C(=O)N[C@@H](CC(=O)O)C(=O)N[C@@H](CCCCN)C(=O)N[C@@H](CC(=O)O)C(=O)N[C@@H](CC(N)=O)C(=O)N[C@H](C(=O)N[C@@H](C)C(=O)N1CCC[C@H]1C(=O)N1CCC[C@H]1C(=O)N[C@H](C(=O)N[C@@H](CC(N)=O)C(=O)N[C@H](C(=O)NCC(=O)N[C@@H](CO)C(=O)N[C@@H](CC(N)=O)C(=O)NCC(=O)N1C[C@H](O)C[C@H]1C(N)=O)C(C)C)[C@@H](C)O)C(C)C)[C@@H](C)O` [compound 78] ({C20 diacid-γGlu}-KCNTATCTVQRLAEQIAQFTDKDKDNVAPPTNVGSNG[Hyp]-NH2; disulfide 2-7): in data set [1], the EC50 came out at 0.014 nM. The compound also displayed an EC50 in data set [5] greater than 5000 nM. Further, in data set [3] (10 nmol/kg), the “cumulative food intake, % to vehicle” value was 33.66% and the “Average cumulative food intake” value is reported as 13.7 g. Moreover, in data set [4] (setting [8]), the “body weight day 28, % to vehicle” value is reported as 88.53% and the “Average body weight day 28 (gram)” value amounted to 687 gram.
